For data set [1], the system named is SARS-CoV-2. To be noted: hamster, in vivo.
Data set [2] relates to SARS-CoV-2. The data set is classed as cell-based.
The subject of data set [3] is pseudovirus presenting the spike of MERS-CoV. Nature of the data set: organism not typed. It counts as cell-based.
The next data set relates to HCoV-229E. The data set is classed as cell-based.
The next data set deals with SARS-CoV. It counts as cell-based.
For data set [4], the system named is A549 cells. The data set is classed as cell-based. The conditions noted are these: 10 μM, 12 h.
A further data set relates to HCoV-OC43. The data set is classed as cell-based.
In data set [5] the test system is A549 cells. The data set is classed as cell-based. The conditions noted are these: 10 μM, 12 h. This is another data set of the same source.
In data set [6] the test system is MERS-CoV. It counts as cell-based.
Data set [7] relates to MERS-CoV. It counts as cell-based. The source holds these as a separate data set.

As usually defined, the EC50 is the concentration needed to bring the measured effect to its halfway point. As to `O=C(c1ccc(OCCN2CCCCC2)cc1)c1c(-c2ccc(O)cc2)sc2cc(O)ccc12` [raloxifene], the “activity level or survival rate” value in the data set on SARS-CoV-2 [1] is “no significant changes”. The “inhibition of SARS-CoV-2 infection by viral RNA” value in the data set with SARS-CoV-2 [2] is listed as “strong potency”. Besides, in data set [3] (Huh-7, read-out: Pseudovirus (EC50, μM)), the EC50 is 0.2 µM. The “efficacy against HCoV-229E” value with HCoV-229E is on record as “effective”. Also, the “cytotoxic effects in the pseudovirus assay” value with Huh-7 cells was “no significant cytotoxic effects”. Besides, in the data set on SARS-CoV, the “potency against SARS-CoV” value is listed as “strong potency”. In addition, in the data set with A549 cells [4], the “CH25H gene expression” value was “do not show alteration” and the “SQLE expression” value is reported as “significantly enhanced”. The “efficacy against HCoV-OC43” value with HCoV-OC43 was “effective”. Further, in the data set on A549 cells [5], the “total cellular cholesterol” value was “marginal elevation”. The “inhibition by time of addition” value with MERS-CoV [6] is given as “more potent when added at the earlier stages”.

For `CCCCc1oc2ccccc2c1C(=O)c1cc(I)c(OCCN(CC)CC)c(I)c1` [amiodarone], the “pseudovirus infection / luciferase signal” value in data set [3] is on record as “outstanding antiviral activity”. Moreover, the “efficacy against HCoV-229E” value in the data set on HCoV-229E is “showed efficacy”. For the same compound, the “potency against SARS-CoV” value with SARS-CoV is reported as “strong potency”. In the data set on HCoV-OC43, the “efficacy against HCoV-OC43” value is recorded as “showed efficacy”. In addition, in the data set on MERS-CoV [6], the “inhibition by time of addition” value was “strongly inhibited the viral infection when added at an early time point”.

With `CCN(CC)CCCC(C)Nc1ccnc2cc(Cl)ccc12` (centres unmarked) [chloroquine], in the data set with MERS-CoV [7], the “MERS-CoV infection assay, immunofluorescence” value is “quenched in a concentration-dependent manner”. For the same compound, the “inhibition by time of addition” value in the data set on MERS-CoV [6] is reported as “stage-selective activity”.

On to `Cc1cccc(C)c1OCC(=O)N[C@@H](Cc1ccccc1)[C@@H](O)C[C@H](Cc1ccccc1)NC(=O)[C@H](C(C)C)N1CCCNC1=O` [lopinavir], for which the “MERS-CoV infection assay, immunofluorescence” value in the data set on MERS-CoV [7] was “quenched in a concentration-dependent manner”. Also, the “inhibition by time of addition” value in the data set on MERS-CoV [6] is “showed efficacy when added at a relatively later stage of infection”.

Source of the values: paper PMC9682871 (Antiviral Research, 2022).
